Data: the NIST ThermoML archive (doi:10.1016/j.fluid.2013.02.005)

How the values were obtained:
[1] = xn = mol fraction of the nth substance listed; conditions: Maximal bubble pressure
[2] = for surface tension liquid-gas: Maximal bubble pressure; for mass density: 298.15 K, 101.33 kPa, Vibrating tube method; for mass density / vapor or sublimation pressure: Liquid; for vapor or sublimation pressure: Ebulliometric method (Recirculating still)
[3] = Boiling temperature at pressure P; conditions: 101.33 kPa; Liquid; Ebulliometric method (Recirculating still)
[4] = refractive index (Na D-line) (dimensionless); conditions: 298.15 K; 101.33 kPa; Liquid; Standard Abbe refractometry

Cc1ccc(C)o1 [2,5-dimethylfuran] + CC(C)OC(C)C
surface tension liquid-gas [mN/m], [1]
Conditions	283.15 K	330.15 K
x2 = 0	26.34	20.58
x2 = 0.067	24.79	–
x2 = 0.112	24.27	–
x2 = 0.153	–	19.28
x2 = 0.192	–	18.93
x2 = 0.234	23.31	–
x2 = 0.245	–	18.31
x2 = 0.323	22.56	–
x2 = 0.342	–	17.66
x2 = 0.42	21.87	–
x2 = 0.434	–	17.01
x2 = 0.52	21.31	–
x2 = 0.543	–	16.48
x2 = 0.626	20.86	–
x2 = 0.664	–	15.79
x2 = 0.782	–	15.16
x2 = 0.897	–	14.65

Cc1ccc(C)o1 [2,5-dimethylfuran]
[2]
Conditions	surface tension liquid-gas [mN/m]	vapor or sublimation pressure [kPa]
283.15 K	26.34	–
303.15 K	24.05	–
330.15 K	20.58	–
345.24 K	–	50
357.21 K	–	75
364.37 K	–	94

Conditions	Boiling temperature at pressure P [°C]	mass density [kg/m3]	refractive index
[2]	–	895.63	–
[3]	93.68	–	–
[4]	–	–	1.44012

CC(C)OC(C)C [diisopropyl ether]
[2]
Conditions	surface tension liquid-gas [mN/m]	vapor or sublimation pressure [kPa]
283.15 K	18.88	–
303.15 K	16.7	–
307.64 K	–	30.01
311.53 K	–	35.01
314.98 K	–	40.01
318.08 K	–	45.01
320.94 K	–	50.01
321.03 K	–	50
323.56 K	–	55.01
326 K	–	60.01
328.29 K	–	65.01
330.15 K	13.88	–
330.45 K	–	70.01
332.48 K	–	75.01
332.65 K	–	75
334.41 K	–	80.01
336.23 K	–	85.01
339.57 K	–	94
339.65 K	–	95.01
341.52 K	–	100.89

Conditions	Boiling temperature at pressure P [°C]	mass density [kg/m3]	refractive index
[2]	–	718.75	–
[3]	68.52	–	–
[4]	–	–	1.36652

CC(C)OC(C)C [diisopropyl ether] + Cc1ccc(C)o1
[1], x1 = 1
Conditions	surface tension liquid-gas [mN/m]
283.15 K	18.88
330.15 K	13.88
